Experimental data as given in patent US9283297B2, “Sanitary article comprising a microbe-inhibiting composition” (SCA HYGIENE PRODUCTS AB, priority 2006, dated 2016).
Values joined by “and” are separate entries in the source; they are usually repeats but may differ in a detail not shown here. Identical values can stand only once.

Assays:
C. albicans = assay: Example 1 Screening II: Lactobacillus cell-free filtrate, turbidity; type: cell-based, Candida albicans; details: three times concentrated
Source text: (§1) Clinical isolates of Candida albicans and Candida glabrata were used as test strains. These were isolated from the vagina of women with vaginal candidiasis and from healthy females. Suspensions of lactobacilli grown in dMRSs broth (MRS broth without addition of sodium acetate) were centrifuged and sterile filtered. The filtrate is henceforth called Lactobacillus Cell-free Filtrate, LCF. A specified volume was transferred to wells of a micro titre plate and was let to air dry and thereafter resuspended in sterile distilled water to a concentration three times higher and transferred to 96-wells micro titre plates. Candida was added to all vials (three isolates of C. albicans and C. glabrata, respectively, were used). The inhibition was evaluated by visual observation of turbidity and graduated by two persons using a template on a scale from five to zero. The wells containing strong growth of Candida sp. in pure dMRSs-broth was graduated as five, while wells with no visual growth were graduated as zero.

C. glabrata = assay: as above; type: cell-based, Candida glabrata; details: three times concentrated
Source text: as §1

Candida albicans 702 = assay: Test 4: agar plug test, zones with no growth of Candida; type: cell-based; details: for Zones around the plugs with no growth of Candida, Plug with LB931: ~10^7 LB 931 per plug
Source text: The purpose of this test was to evaluate the enhanced Candida inhibition from Na-acetate in combination with growing cells of Lactobacillus plantarum LB 931. Two plates were made with M17 agar and two with MRS agar. MRS medium (developed by De Man, Rogosa and Sharpe), is a growth medium commonly used for Lactobacillus. MRS agar from Merck contains 5 g sodium acetate per litre agar. M17 (Oxoid) is a similar commercial substrate for Lactobacillus but without the addition of sodium acetate. The agars were prepared as described on the packages. Lactobacillus plantarum LB931 was cultivated in MRS broth in 37° C. with 5% CO2 for 24 hours. Candida albicans 702 was cultivated in M17 broth at 37° C. for 24 hours. Holes (Ø10 mm) were punched in the plates and filled with 250 μl plugs of agar mixtures containing ˜10^7 LB 931 in MRS agar). The plates were left for 30 minutes and then incubated 24 hours at 37° C. with 5% CO2. Overnight culture of C. albicans in M17 broth was diluted 10 times and 100 μl was spread on the surface of each plate. The plates were then incubated for 24 hours at 37° C. As controls, holes (Ø10 mm) were filled with only MRS agar. The plates were evaluated in respect to Candida growth inhibition. Zones around the plugs with no growth of Candida were measured (Ø mm).

| Substance | inhibition of growth of C. albicans (C. albicans) | inhibition of growth of C. glabrata (C. glabrata) | Zones around the plugs with no growth of Candida, Plug with LB931 (Candida albicans 702; M17 agar in the Petri dish (without sodium acetate)) | Candida growth inhibition, in words (Candida albicans 702; M17 agar plates (without sodium acetate)) | Zones around the plugs with no growth of Candida, Plug with LB931 (Candida albicans 702; MRS agar in the Petri dish (contains 5 g sodium acetate per litre)) | Candida growth inhibition zones, in words (Candida albicans 702; MRS agar plates (sodium acetate)) |
| --- | --- | --- | --- | --- | --- | --- |
| Lactobacillus fermentum Ess-1 | comprehensive capacity to inhibit growth of Candida | comprehensive capacity to inhibit growth of Candida |  |  |  |  |
| Lactobacillus plantarum LB 931 [LB931] |  |  | 0 Ø mm | substantially no inhibition of Candida | 18.8 Ø mm and 18.1 Ø mm | clear zones |
